# Results from ChEMBL document CHEMBL1126739, “Excursions in drug discovery” (J Med Chem, 1993).
# Legend:
# [1] = biological target: T1, Angiotensin-converting enzyme (Homo sapiens, UniProt P12821); test: Inhibition of Angiotensin I converting enzyme
# [2] = biological target: T2, Cholecystokinin receptor type A (Homo sapiens, UniProt P32238); test: Antagonistic activity against cholecystokinin type A receptor; assay type: functional
# T2 sequence (P32238 whole entry): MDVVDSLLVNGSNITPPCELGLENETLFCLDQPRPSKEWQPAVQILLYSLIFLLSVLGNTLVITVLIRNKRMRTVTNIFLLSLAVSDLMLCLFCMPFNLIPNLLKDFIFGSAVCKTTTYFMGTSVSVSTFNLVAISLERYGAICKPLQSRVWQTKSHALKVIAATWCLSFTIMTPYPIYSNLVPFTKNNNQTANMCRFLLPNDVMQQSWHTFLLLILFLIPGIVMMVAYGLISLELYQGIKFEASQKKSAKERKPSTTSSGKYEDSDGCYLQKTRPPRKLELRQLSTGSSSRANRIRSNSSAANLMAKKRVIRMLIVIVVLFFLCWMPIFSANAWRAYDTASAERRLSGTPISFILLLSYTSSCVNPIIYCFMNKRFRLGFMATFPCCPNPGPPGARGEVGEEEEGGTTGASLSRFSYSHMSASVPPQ
# Renin = biological target: T3, Renin (Homo sapiens, UniProt P00797); test: Inhibition of human renin
# T3 sequence (P00797 whole entry): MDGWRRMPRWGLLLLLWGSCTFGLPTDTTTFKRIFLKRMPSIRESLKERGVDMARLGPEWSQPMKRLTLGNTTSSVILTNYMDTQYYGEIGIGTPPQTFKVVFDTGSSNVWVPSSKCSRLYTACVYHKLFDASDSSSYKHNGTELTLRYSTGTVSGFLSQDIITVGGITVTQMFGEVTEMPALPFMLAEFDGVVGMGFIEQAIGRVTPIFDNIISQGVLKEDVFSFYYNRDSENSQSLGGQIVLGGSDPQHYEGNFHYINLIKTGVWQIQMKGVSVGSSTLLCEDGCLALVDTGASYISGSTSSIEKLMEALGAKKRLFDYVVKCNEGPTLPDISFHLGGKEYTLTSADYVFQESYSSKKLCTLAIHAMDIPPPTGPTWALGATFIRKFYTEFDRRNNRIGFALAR
# Thermolysin = biological target: T4, Thermolysin (Bacillus thermoproteolyticus, UniProt P00800); test: Inhibition of metallopeptidase thermolysin
# T4 sequence (P00800 whole entry): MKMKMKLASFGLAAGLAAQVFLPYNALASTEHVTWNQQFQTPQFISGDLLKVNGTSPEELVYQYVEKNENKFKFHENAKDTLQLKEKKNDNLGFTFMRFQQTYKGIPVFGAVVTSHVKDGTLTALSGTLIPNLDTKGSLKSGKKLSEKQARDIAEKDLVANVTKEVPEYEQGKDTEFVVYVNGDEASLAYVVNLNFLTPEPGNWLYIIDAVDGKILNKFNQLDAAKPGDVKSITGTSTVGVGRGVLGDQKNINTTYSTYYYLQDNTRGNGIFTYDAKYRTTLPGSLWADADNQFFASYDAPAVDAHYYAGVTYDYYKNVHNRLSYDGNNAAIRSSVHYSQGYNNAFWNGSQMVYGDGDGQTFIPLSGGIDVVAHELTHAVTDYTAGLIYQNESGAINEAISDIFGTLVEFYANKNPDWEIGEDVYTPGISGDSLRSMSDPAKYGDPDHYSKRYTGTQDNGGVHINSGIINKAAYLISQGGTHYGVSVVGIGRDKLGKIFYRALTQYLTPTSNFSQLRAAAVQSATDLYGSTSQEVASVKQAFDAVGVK
# [3] = biological target: T1, Angiotensin-converting enzyme; test: Inhibition of Angiotensin I converting enzyme at 3.3 x 10 E -4M concentration
# T1 sequence (P12821 whole entry): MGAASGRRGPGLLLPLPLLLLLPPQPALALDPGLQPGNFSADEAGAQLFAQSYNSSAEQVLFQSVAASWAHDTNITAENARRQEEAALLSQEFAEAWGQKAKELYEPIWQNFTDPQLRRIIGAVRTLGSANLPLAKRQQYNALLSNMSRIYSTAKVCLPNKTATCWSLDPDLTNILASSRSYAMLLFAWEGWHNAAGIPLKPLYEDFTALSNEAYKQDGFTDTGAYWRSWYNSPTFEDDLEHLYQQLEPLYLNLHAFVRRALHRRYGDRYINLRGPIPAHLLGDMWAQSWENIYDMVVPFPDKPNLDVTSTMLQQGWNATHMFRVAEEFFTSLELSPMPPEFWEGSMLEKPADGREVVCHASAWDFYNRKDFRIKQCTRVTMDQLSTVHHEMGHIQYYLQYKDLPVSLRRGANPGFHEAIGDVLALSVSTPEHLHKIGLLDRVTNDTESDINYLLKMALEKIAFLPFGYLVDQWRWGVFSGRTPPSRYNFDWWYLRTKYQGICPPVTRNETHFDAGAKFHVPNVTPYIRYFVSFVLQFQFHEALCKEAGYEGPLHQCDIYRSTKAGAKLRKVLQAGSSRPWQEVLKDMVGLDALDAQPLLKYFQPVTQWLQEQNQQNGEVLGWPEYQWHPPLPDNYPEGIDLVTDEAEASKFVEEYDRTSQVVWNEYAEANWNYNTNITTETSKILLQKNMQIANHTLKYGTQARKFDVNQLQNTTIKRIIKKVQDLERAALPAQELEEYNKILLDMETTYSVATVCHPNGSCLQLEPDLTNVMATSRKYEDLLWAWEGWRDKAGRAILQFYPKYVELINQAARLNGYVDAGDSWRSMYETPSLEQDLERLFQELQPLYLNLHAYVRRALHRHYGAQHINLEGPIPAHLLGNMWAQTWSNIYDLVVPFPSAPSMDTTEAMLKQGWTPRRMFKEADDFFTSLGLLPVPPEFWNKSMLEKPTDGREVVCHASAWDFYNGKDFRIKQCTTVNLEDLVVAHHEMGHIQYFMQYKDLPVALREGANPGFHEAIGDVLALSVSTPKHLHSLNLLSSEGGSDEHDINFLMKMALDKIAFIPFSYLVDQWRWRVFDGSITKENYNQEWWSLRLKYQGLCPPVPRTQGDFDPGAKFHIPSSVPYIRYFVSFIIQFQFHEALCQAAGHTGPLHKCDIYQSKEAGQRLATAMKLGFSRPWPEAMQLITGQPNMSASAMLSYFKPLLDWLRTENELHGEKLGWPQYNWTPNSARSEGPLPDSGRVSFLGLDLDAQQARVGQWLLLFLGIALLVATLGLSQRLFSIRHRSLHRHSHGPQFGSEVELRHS
SMILES,IC50 [1] [nM],also measured
O=C(CCC(=O)N1CCCC1C(=O)O)NO (centres undefined),50000,–
CC(C)C[C@@H]1N[C@H]2N(C1=O)c1ccccc1[C@@]2(O)C[C@@H]1NC(=O)c2ccccc2-n2c1nc1ccccc1c2=O [ASPERLICIN],–,IC50 [2]: 1400 nM
CC(CCC(=O)N1CCCC1C(=O)O)C(=O)O (centres undefined),260000,–
CC(C)(C)S(=O)(=O)C[C@@H](Cc1ccccc1)C(=O)NC1CSCCC[C@H](CN2CCOCC2)OC(=O)[C@H](O)[C@H](CC2CCCCC2)NC1=O (some centres undefined),–,IC50 (Renin): 0.35 nM
C[C@@H](CCC(=O)O)C(=O)N1CCCC1C(=O)O (some centres undefined),4900,–
CC(NP(=O)(O)CCc1ccccc1)C(=O)N1CCCC1C(=O)O (centres undefined),–,IC50 (Thermolysin): 7 nM
O=C(O)CCC(=O)N1CCCC1C(=O)O (centres undefined),–,inhibition [3]: 43%
CC(N[C@H](C)C(=O)N1CCC[C@H]1C(=O)O)C(=O)O (some centres undefined),90,–
C[C@@H](NCC(=O)O)C(=O)N1CCC[C@H]1C(=O)O,2400,–
